Measured values as given in patent publication US20260034153A1, “Cerebral Blood Flow Augmenter, Brain Activity Promoter, and Vigilance Improver” (Mitsui DM Sugar Co., Ltd., priority 2022, published 2026).

Assays:
healthy men and women [1] = assay: Change in cerebral blood flow in the dorsal lateral prefrontal area during DVT, measured by fNIRS (HOT-2000); type: in vivo, human; details: throughout 5 DVTs, compared to glucose intake group, FIGS. 2 and 3
Method: The subjects mentioned above were instructed to take a test diet containing glucose instead of isomaltulose on another day and the same test was performed (crossover test). They constituted a control group.
Using a brain activity measuring apparatus (HOT-2000, manufactured by NeU Corporation) based on fNIRS (near-Infrared spectroscopy), a change in cerebral blood flow in the dorsal lateral prefrontal area was measured during DVT. According to this apparatus, a change in hemoglobin concentration in blood can be detected by irradiation with near-infrared light, with the result that a change in cerebral blood flow in an active area of the brain can be measured.

healthy men and women [2] = assay: Digit vigilance task (DVT) response time after intake of test food, crossover test; type: in vivo, human; details: 10.0 g in 100 mL water taken orally before 2nd DVT; 5 DVTs, one per hour; 64 subjects; FIG. 1
Method: As the subjects, 64 healthy men and women of 20 to 60 years old were employed. The effects of intake of isomaltulose on cerebral blood flow and brain activity were evaluated based on measurement of the response time to a cognitive task (Digit vigilance task (DVT)) and change of the cerebral blood flow in accordance with the following test. Test methods are more specifically shown below. In the test, each block including the steps shown in Table 1 was performed in one hour, and the 1st block to the 5th block were continuously performed on the same day. […] Before the start of the 2nd DVT, an aqueous solution prepared by dissolving 10.0 g of isomaltulose in 100 mL of water was given as a test food. After the completion of DVT and before the next DVT, the Uchida Kraepelin test was performed. The Uchida Kraepelin test is a test of adjacent single-digit addition. In this Example, the test was performed in order to apply a load such as fatigue to the subject in order to control the break time. DVT is a task mainly used for measuring the vigilance (Non Patent Literature 1 (Joel S. Warm et al., Vigilance requires hard mental work and is stressful, Human Factors, Vol. 50 (3), pp. 433-41, 2008)). […] The time from display of the number or character to the subject's response is measured. […]

[3] = fraction of the hydrolysis rate of sucrose; cited from earlier work
healthy men and women [4] = assay: Subjective questionnaire survey (VAS method) after the task; type: in vivo, human; details: questionnaire at 3rd to 5th block; compared to glucose control group
Method: As the subjects, 64 healthy men and women of 20 to 60 years old were employed. The effects of intake of isomaltulose on cerebral blood flow and brain activity were evaluated based on measurement of the response time to a cognitive task (Digit vigilance task (DVT)) and change of the cerebral blood flow in accordance with the following test. Test methods are more specifically shown below. In the test, each block including the steps shown in Table 1 was performed in one hour, and the 1st block to the 5th block were continuously performed on the same day. […] Before the start of the 2nd DVT, an aqueous solution prepared by dissolving 10.0 g of isomaltulose in 100 mL of water was given as a test food. After the completion of DVT and before the next DVT, the Uchida Kraepelin test was performed. The Uchida Kraepelin test is a test of adjacent single-digit addition. In this Example, the test was performed in order to apply a load such as fatigue to the subject in order to control the break time. First, “Last night, did you sleep better than usual?” was asked. After DVT or Uchida Kraepelin test, the survey for asking subjectivity of the subjects was conducted as to “How are you feeling right now?”, “Are you feeling tired right now?”, “Are you feeling irritated right now?”, “Are you feeling sleepy right now?”, and “Did you work diligently on the task until the end?”. […]

## O=C(CO)[C@@H](O)[C@H](O)[C@H](O)CO[C@H]1O[C@H](CO)[C@@H](O)[C@H](O)[C@H]1O [isomaltulose, 6-O-α-D-glucopyranosyl-D-fructose]
Healthy men and women [1]
  change in cerebral blood flow during DVT (average 0 to 120 seconds): significantly large
Healthy men and women [2]
  response time in DVT (change of average response time relative to 1st DVT): less likely to increase
[3]
  hydrolysis rate relative to sucrose: ⅕
Healthy men and women [4]
  answer to question "have you dealt with the task diligently to the end?": dealt with the task diligently
